According to patent US10017516B2, “BMP inhibitors and methods of use thereof” (The Brigham and Women's Hospital, Inc., priority 2013, dated 2018):

How the values were obtained:
[1] = In vitro metabolism in mouse and human liver microsomes and cytosols; assay type: in vitro ADME; details: for major metabolism in the presence of liver cytosol (aldehyde oxidase-mediated oxidation): 10 μM, 60 min, mouse and human; for glucuronide conjugates: with UDPGA
[2] = In vitro metabolism in human liver microsomes and cytosols; assay type: in vitro ADME
human ALK2 = human ALK2 (Homo sapiens (Human), UniProt Q04771); assay: LANCE Ultra ULight enzymatic assay, ALK2; assay type: biochemical; details: 10 μM ATP
Sequence of human ALK2 (Q04771 21-509): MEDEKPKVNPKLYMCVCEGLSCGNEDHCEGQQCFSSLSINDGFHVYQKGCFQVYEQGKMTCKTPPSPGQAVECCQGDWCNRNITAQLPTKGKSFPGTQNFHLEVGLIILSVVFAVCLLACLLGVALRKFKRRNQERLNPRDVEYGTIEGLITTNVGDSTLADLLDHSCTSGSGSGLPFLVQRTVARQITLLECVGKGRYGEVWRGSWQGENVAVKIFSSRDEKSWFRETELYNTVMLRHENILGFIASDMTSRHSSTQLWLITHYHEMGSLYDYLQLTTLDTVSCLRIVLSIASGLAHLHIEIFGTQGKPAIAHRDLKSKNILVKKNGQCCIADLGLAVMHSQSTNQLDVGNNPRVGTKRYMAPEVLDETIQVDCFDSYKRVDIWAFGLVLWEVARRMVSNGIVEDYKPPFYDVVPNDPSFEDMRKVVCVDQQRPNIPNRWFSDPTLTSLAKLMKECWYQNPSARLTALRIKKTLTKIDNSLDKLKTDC

c1ccc2c(-c3cnn4cc(-c5ccc(C6CCNCC6)cc5)cnc34)ccnc2c1 [Compound 48]
major metabolism in the presence of liver cytosol (aldehyde oxidase-mediated oxidation) [1]: metabolized mainly through the oxidation of the quinoline ring | GSH trapping of soft electrophiles ([1]; GSH 2 mM): not observed | cyanide adducts (reactive intermediate trapping with KCN) ([1]; KCN 0.1 mM): not observed | glucuronide conjugates [1]: not observed

C[C@@H]1CNC[C@H](C)N1c1ccc(-c2cnc3c(-c4ccnc5ccccc45)cnn3c2)cc1 [compound 2, 4-(6-(4-((2R,6S)-2,6-dimethylpiperazin-1-yl)phenyl)pyrazolo[1,5-a]pyrimidin-3-yl)quinoline]
major metabolism in the presence of liver cytosol (aldehyde oxidase-mediated oxidation) [1]: oxidation of the alpha-carbon of quinoline nitrogen, leading to M450c | glucuronide conjugates [1]: not observed

Cc1cc(-c2cnn3cc(-c4ccc(N5CCNCC5)nc4)cnc23)c2ccccc2n1 [compound 12, 2-methyl-4-(6-(6-(piperazin-1-yl)pyridin-3-yl)pyrazolo[1,5-a]pyrimidin-3-yl)quinoline]
oxidative metabolites in incubation without NADPH (AO mediated metabolism) ([2]; 10 μM, 1 hr, HLM + human cytosol): Oxidative metabolites were not observed | cyanide adduct (KCN trapping) ([2]; KCN 1 mM): A major cyanide adduct was observed | glucuronide conjugates ([2]; UDPGA 4 mM): Glucuronide conjugates were not observed | aniline metabolites ([2]; human liver microsomal preparations): An aniline derivative was observed

Cc1ccc2c(-c3cnn4cc(-c5ccc(OCCN6CCCCC6)cn5)cnc34)cccc2n1 [Compound 48′, 2-methyl-5-(6-(5-(2-(piperidin-1-yl)ethoxy)pyridin-2-yl)pyrazolo[1,5-a]pyrimidin-3-yl)quinoline]
IC50 (human ALK2): 85 nM
